Measurements published in PubChem BioAssay AID248 (DTP/NCI, 2004).
Where “and” joins values, the source holds several entries; their conditions need not be identical. Equal entries are not always repeated. Inconclusive results and toxic doses are left out. No stated cut-off is given here; in the data, active means T/C of 150% or more; inactive means T/C below 125%.

Tested on: L1210 leukemia ip in BDF1 mice, survival T/C
Assay: NCI In Vivo Anticancer Drug Screen. Data for tumor model L1210 Leukemia (intraperitoneal) in B6D2F1 (BDF1) mice
Conditions: endpoint: mean survival time, higher = longer survival
Summary of the method: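 Transplanted-tumor mice were given test agent; controls received vehicle only. Survival readings from the two groups were divided (treated over control).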

[1] = dose: 100.0 mg/kg/injection, schedule: Q01DX001 (ip), vehicle: Klucel (hydroxypropylcellulose) (HPC)
[2] = dose: 100.0 mg/kg/injection, schedule: Q01DX009 (ip), vehicle: Klucel (hydroxypropylcellulose) (HPC)
[3] = dose: 100.0 mg/kg/injection, schedule: Q04DX002 (ip), vehicle: Klucel (hydroxypropylcellulose) (HPC)
[4] = dose: 100.0 mg/kg/injection, schedule: Q04DX003 (ip), vehicle: Klucel (hydroxypropylcellulose) (HPC)
[5] = dose: 200.0 mg/kg/injection, schedule: Q01DX001 (ip), vehicle: Klucel (hydroxypropylcellulose) (HPC)
[6] = dose: 200.0 mg/kg/injection, schedule: Q01DX009 (ip), vehicle: Klucel (hydroxypropylcellulose) (HPC)
[7] = dose: 200.0 mg/kg/injection, schedule: Q04DX002 (ip), vehicle: Klucel (hydroxypropylcellulose) (HPC)
[8] = dose: 200.0 mg/kg/injection, schedule: Q04DX003 (ip), vehicle: Klucel (hydroxypropylcellulose) (HPC)
[9] = dose: 400.0 mg/kg/injection, schedule: Q01DX001 (ip), vehicle: Klucel (hydroxypropylcellulose) (HPC)
[10] = dose: 400.0 mg/kg/injection, schedule: Q01DX009 (ip), vehicle: Klucel (hydroxypropylcellulose) (HPC)
[11] = dose: 400.0 mg/kg/injection, schedule: Q04DX002 (ip), vehicle: Klucel (hydroxypropylcellulose) (HPC)
[12] = dose: 400.0 mg/kg/injection, schedule: Q04DX003 (ip), vehicle: Klucel (hydroxypropylcellulose) (HPC)
[13] = dose: 100.0 mg/kg/injection, schedule: Q01DX001 (ip), vehicle: saline
[14] = dose: 100.0 mg/kg/injection, schedule: Q01DX009 (ip), vehicle: saline
[15] = dose: 100.0 mg/kg/injection, schedule: Q04DX003 (ip), vehicle: saline
[16] = dose: 200.0 mg/kg/injection, schedule: Q04DX003 (ip), vehicle: saline
[17] = dose: 400.0 mg/kg/injection, schedule: Q04DX003 (ip), vehicle: saline
[18] = dose: 200.0 mg/kg/injection, schedule: Q01DX001 (ip), vehicle: saline
[19] = dose: 400.0 mg/kg/injection, schedule: Q01DX001 (ip), vehicle: saline
[20] = dose: 50.0 mg/kg/injection, schedule: Q01DX001 (ip), vehicle: carboxymethylcellulose (CMC)
[21] = dose: 100.0 mg/kg/injection, schedule: Q01DX001 (ip), vehicle: carboxymethylcellulose (CMC)
[22] = dose: 200.0 mg/kg/injection, schedule: Q01DX001 (ip), vehicle: carboxymethylcellulose (CMC)
[23] = dose: 400.0 mg/kg/injection, schedule: Q01DX001 (ip), vehicle: carboxymethylcellulose (CMC)
[24] = dose: 100.0 mg/kg/injection, schedule: Q04DX002 (ip), vehicle: saline with Tween-80
[25] = dose: 400.0 mg/kg/injection, schedule: Q04DX002 (ip), vehicle: saline with Tween-80
[26] = dose: 25.0 mg/kg/injection, schedule: Q01DX009 (ip), vehicle: saline
[27] = dose: 50.0 mg/kg/injection, schedule: Q01DX009 (ip), vehicle: saline

Measured: T/C

NC(=O)C1CCN(C(=O)Nc2cc(C(F)(F)F)ccc2Cl)CC1
inactive: [1] 93 % of control | [2] 98 % of control and 102 % of control | [3] 103 % of control and 107 % of control | [4] 111 % of control | [5] 86 % of control | [6] 93 % of control and 98 % of control | [7] 100 % of control and 105 % of control | [8] 103 % of control | [9] 91 % of control | [10] 95 % of control | [11] 100 % of control | [12] 107 % of control

CC(C)(C)CC#N
inactive: dose: 5.0 mg/kg/injection, schedule: Q01DX001 (ip), vehicle: saline 100 % of control | dose: 10.0 mg/kg/injection, schedule: Q01DX001 (ip), vehicle: saline 106 % of control | dose: 20.0 mg/kg/injection, schedule: Q01DX001 (ip), vehicle: saline 102 % of control | dose: 40.0 mg/kg/injection, schedule: Q01DX001 (ip), vehicle: saline 106 % of control | dose: 80.0 mg/kg/injection, schedule: Q01DX001 (ip), vehicle: saline 100 % of control | [13] 94 % of control

O=C(CNCc1ccccc1)c1ccc(Cl)cc1
inactive: dose: 50.0 mg/kg/injection, schedule: Q01DX001 (ip), vehicle: Klucel (hydroxypropylcellulose) (HPC) 93 % of control | [1] 96 % of control | [5] 93 % of control | [9] 93 % of control

O/N=c1/cc(-c2ccc(Cl)cc2)ss1
inactive: [14] 91 % of control | [15] 93 % of control | dose: 200.0 mg/kg/injection, schedule: Q01DX009 (ip), vehicle: saline 89 % of control | [16] 95 % of control | dose: 400.0 mg/kg/injection, schedule: Q01DX009 (ip), vehicle: saline 96 % of control | [17] 97 % of control

CCNC(=O)NC1C(O)OC(CO)C(O)C1O (stereo not drawn)
inactive: [13] 96 % of control | [15] 99 % of control | [18] 103 % of control | [16] 99 % of control | [19] 102 % of control | [17] 95 % of control

CN1C(=O)NC(C)(CCOCc2ccccc2)C1=O (stereo not drawn)
inactive: [20] 96 % of control | [21] 107 % of control | [22] 100 % of control | [23] 100 % of control

CC[N+](CC)(CC)CCC[N+](CC)(CC)CC
inactive: dose: 30.0 mg/kg/injection, schedule: Q01DX009 (ip), vehicle: water 98 % of control | dose: 50.0 mg/kg/injection, schedule: Q01DX009 (ip), vehicle: water 95 % of control and 96 % of control | dose: 80.0 mg/kg/injection, schedule: Q01DX009 (ip), vehicle: water 98 % of control | dose: 100.0 mg/kg/injection, schedule: Q04DX003 (ip), vehicle: water 103 % of control | dose: 200.0 mg/kg/injection, schedule: Q04DX003 (ip), vehicle: water 99 % of control

Cc1ccc(NC(=O)CI)cc1
inactive: dose: 50.0 mg/kg/injection, schedule: Q04DX002 (ip), vehicle: other 100 % of control

CC(NC(=O)NC(C)(C)C)c1ccccc1 (stereo not drawn)
inactive: [3] 102 % of control | [7] 105 % of control | [11] 121 % of control

NC(=O)C(=Cc1ccc([N+](=O)[O-])s1)C(N)=O
inactive: [3] 107 % of control | [7] 112 % of control

O=C(NC(CS(=O)(=O)O)C(=O)O)OCc1ccccc1 (stereo not drawn)
inactive: [1] 93 % of control | [4] 93 % of control | [5] 97 % of control | [8] 95 % of control | [9] 91 % of control

CCOP1(=O)OCC(C)(C)CO1
inactive: [13] 98 % of control | [18] 96 % of control | [19] 102 % of control

OCCNc1nn2ccnc2c2ccccc12
inactive: [24] 92 % of control | dose: 200.0 mg/kg/injection, schedule: Q04DX002 (ip), vehicle: saline with Tween-80 92 % of control | [25] 92 % of control

CC12CC3CC(C)(C1)CC(SC(=N)N)(C3)C2
inactive: dose: 10.0 mg/kg/injection, schedule: Q04DX002 (ip), vehicle: Klucel (hydroxypropylcellulose) (HPC) 97 % of control | dose: 20.0 mg/kg/injection, schedule: Q04DX002 (ip), vehicle: Klucel (hydroxypropylcellulose) (HPC) 102 % of control | dose: 40.0 mg/kg/injection, schedule: Q04DX002 (ip), vehicle: Klucel (hydroxypropylcellulose) (HPC) 105 % of control

O=C(Nc1cccc(C(F)(F)F)c1)Nc1c(Oc2ccc(Cl)c(Cl)c2)ccc(Cl)c1S(=O)(=O)O
inactive: [15] 103 % of control | [16] 94 % of control

O=C(OCc1ccc2c(c1)OCO2)C1CC1
inactive: [24] 103 % of control | [25] 101 % of control

CCCCCCCCP(=O)(N1CC1C)N1CC1C (stereo not drawn)
inactive: [26] 98 % of control | [27] 104 % of control | [14] 98 % of control | [15] 91 % of control

CC(=O)NC(CSC(c1ccccc1)(c1ccccc1)c1ccccc1)C(=O)O (stereo not drawn)
inactive: [26] 102 % of control | [27] 96 % of control

CCOC(=O)C(C(=O)OCC)N1C(=O)c2ccccc2C1=O
inactive: [2] 100 % of control | [4] 106 % of control and 102 % of control | [6] 102 % of control | [8] 105 % of control and 104 % of control | [10] 102 % of control | [12] 101 % of control and 100 % of control

CCOC(=O)/C(C#N)=C/c1ccc(O)cc1
inactive: dose: 100.0 mg/kg/injection, schedule: Q01DX Z (ip), vehicle: methylcellulose (MC) 96 % of control | dose: 200.0 mg/kg/injection, schedule: Q01DX Z (ip), vehicle: methylcellulose (MC) 96 % of control

CC(=O)[O][Ge]([CH2]CC(C)C)([CH2]CC(C)C)[CH2]CC(C)C
inactive: [20] 100 % of control | dose: 50.0 mg/kg/injection, schedule: Q01DX001 (ip), vehicle: saline 100 % of control | [21] 100 % of control | [13] 102 % of control | [22] 100 % of control | [18] 106 % of control | [23] 96 % of control | [19] 118 % of control

CNS(=O)(=O)c1ccc(NC(=O)C(Cl)(Cl)Cl)cc1
inactive: dose: 100.0 mg/kg/injection, schedule: Q01DX001 (ip), vehicle: other 105 % of control | [2] 102 % of control | dose: 100.0 mg/kg/injection, schedule: Q04DX003 (ip), vehicle: other 101 % of control | dose: 200.0 mg/kg/injection, schedule: Q01DX001 (ip), vehicle: other 104 % of control | [6] 95 % of control | dose: 200.0 mg/kg/injection, schedule: Q04DX003 (ip), vehicle: other 101 % of control | dose: 400.0 mg/kg/injection, schedule: Q01DX001 (ip), vehicle: other 104 % of control | [10] 96 % of control | dose: 400.0 mg/kg/injection, schedule: Q04DX003 (ip), vehicle: other 98 % of control
